Assay type in all cases: cell-based, human
Test [1] has as its system BJ primary cells. As to the kind of experiment: Calcein AM viability assay, dilution-series retest. Particulars: BJ cells; 16-point two-fold dilution; two days. The source says: (§1) Described here is work carried out to identify compounds with increased potency or activity in the presence of hTERT, LT, ST, E6, E7 or RAS^V12. Engineered cell lines with these genetic elements were used to screen […] compounds, including 20,000 compounds from a combinatorial library, 1,990 compounds from the National Cancer Institute diversity collection, and 1,540 biologically active known compounds that were selected and purchased by Applicant and formatted into a screenable collection. The primary screen tested (in quadruplicate) the effect of treating tumorigenic BJ-TERT/LT/ST/RAS^V12 engineered tumorigenic cells with each compound for 48 hours at a concentration of 4 μg/mL, corresponding to 10 μM for a compound with a molecular weight of 400, which is the approximate median molecular weight of the libraries. Cell viability was measured using the dye calcein acetoxymethyl ester (calcein AM) (Wang et al., 1993, Hum. Immunol. 3 7, 264-270), which is a non-fluorescent compound that freely diffuses into cells. In live cells, calcein AM is cleaved by intracellular esterases, forming the anionic fluorescent derivative calcein, which cannot diffuse out of live cells. […] The IC50 value (concentration required to inhibit 50% of the calcein AM signal) was calculated for each compound in each cell line (Table 1). […] Following is a more detailed analysis of these nine compounds.
(§2) Calcein acetoxylmethyl ester (AM) is a cell membrane-permeable, non-fluorescent compound that is cleaved by intracellular esterases to form the anionic, cell-impermeable, fluorescent compound calcein. Viable cells are stained by calcein because of the presence of intracellular esterases and because the intact plasma membrane prevents fluorescent calcein from leaking out of cells (Wang et al., 1993, supra). Cells were seeded in 384-well plates using a Zymark Sciclone ALH, treated with each compound in triplicate at 4 μg/mL in the primary screen for two days, washed with phosphate-buffered saline on a Packard Minitrak with a 384-well washer and incubated for four hours with 0.7 μg/mL calcein (Molecular Probes). Total fluorescence intensity in each well was recorded on a Packard Fusion platereader, and converted to a percent inhibition of signal by subtracting the instrument background and dividing by the average signal obtained when cells were not treated with any compound.
(§3) Replica daughter plates were prepared with a Zymark Sciclone ALH and integrated Twister II by diluting stock plates 50 fold in medium lacking serum and pen/strep to obtain a compound concentration in daughter plates of 80 μg/ml with 2% DMSO. Assay plates were prepared by seeding cells in black, clear bottom 384-well plates in columns 1-23 (6000 cells/well in 57 μl) using a syringe bulk dispenser. Columns 3-22 were treated with compounds from a daughter library plate by transferring 3 μl from the daughter library plate using 384-position fixed cannula array. The final compound concentrations in assay plates were thus 4 μg/ml. The assay plates were incubated for 48 hours at 37° C. in humidified incubator containing 5% CO2. Plate processing for the calcein AM viability assay was performed using an integrated Minitrak/Sidetrak robotic system from Packard Bioscience (Perkin Elmer). Assay plates were washed with phosphate buffered saline, and 20 μl of calcein AM (0.7 μg/ml) per well was added. Plates were incubated at room temperature for 4 hours. Fluorescence intensity was determined using a Fusion platereader with filters centered on an excitation of 485 nm and an emission of 535 nm.
(§4) Compounds to be retested were purchased from manufacturers. Stocks were prepared in DMSO at a concentration of 1 mg/ml in 384-well polypropylene plates with a 16-point, two-fold dilution dose curve of each compound in a column, in duplicates. Column 1-2 and 23-24 were left empty for controls. […]

Test [2] concerns BJ-TERT/LT/RAS^V12/ST cells. As to the kind of experiment: Calcein AM viability assay, dilution-series retest. Particulars: BJ-TERT/LT/Ras^V12/ST cells; 16-point two-fold dilution; two days.
Excerpt: as §1, §2, §3, §4

The subject of another test is BJ-TERT/LT/ST cells. Kind of test: Calcein AM viability assay, dilution-series retest. Particulars: BJ-TERT/LT/ST cells; 16-point two-fold dilution; two days.
Excerpt: as §1, §2, §3, §4

The test system of test [3] is TIP5/TERT/E6/E7/ST/RAS^V12 cells. Kind of test: Calcein AM viability assay, dilution-series retest. As to conditions: TIP5-TERT/E6E7/ST/Ras^V12 cells; 16-point two-fold dilution; two days.
Excerpt: (§5) In a third series, cell lines derived from independently prepared human TIP5 foreskin fibroblasts created by introducing cDNA constructs encoding hTERT, LT, ST and RASV12 (Lessnick et al., 2002, Cancer Cell 1, 393-401) were used. These cell lines were called, respectively: TIP5/TERT, TIP5/TERT/LT, TIP5/TERT/LT/ST, and TIP5/TERT/LT/ST/RAS^V12. In a fourth series, cell lines derived from TIP5 fibroblasts created by introducing cDNA constructs encoding hTERT, E6, E7, ST and RAS^V12 were used. These cell lines were named, respectively: TIP5/TERT/E6, TIP5/TERT/E6/E7, TIP5/TERT/E6/E7/ST, and TIP5/TERT/E6/E7/ST/RAS^V12. In this series, HPV E6 and E7, which inactivate p53 and RB, respectively, serve a similar function as LT in the previous series. However, by using HPV E6 and E7, Applicants were able to observe the effects of inactivating, separately and independently, p53 and RB. Results of a large-scale screen for compounds that display selective killing of these engineered tumorigenic cell lines are described in the examples that follow.
as §2, §3
(§6) Compounds to be retested were purchased from manufacturers. Stocks were prepared in DMSO at a concentration of 1 mg/ml in 384-well polypropylene plates with a 16-point, two-fold dilution dose curve of each compound in a column, in duplicates. Column 1-2 and 23-24 were left empty for controls. Daughter retest plates were prepared from stock retest plate by diluting 66.6 fold in DMEM in 384-well deep-deep well plates (4.5 μl transfer into 300 μl). Cells were seeded at a density of 6000 per well in 40 μl, and 20 μl was added from a daughter retest plate. The plates were incubated for two days at 37° C. with 5% CO2.
(§7) Mean RFU (relative fluorescence units) for untreated cells was calculated by averaging columns 1, 2, and 23 (wells with cells but lacking compounds). […]

The subject of another test is TIP5/TERT/E6/E7 cells. As to the kind of experiment: Calcein AM viability assay, dilution-series retest. As to conditions: TIP5-TERT/E6E7 cells; 16-point two-fold dilution; two days.
Excerpt: as §5, §2, §3, §6, §7

The subject of test [4] is TIP5/TERT/LT/ST/RAS^V12 cells. As to the kind of experiment: Calcein AM viability assay, dilution-series retest. As to conditions: TIP5 TERT/LT/ST/Ras^V12 cells; 16-point two-fold dilution; two days.
Excerpt: as §5, §2, §3, §6, §7

A further test deals with TIP5/TERT/LT cells. As to the kind of experiment: Calcein AM viability assay, dilution-series retest. Particulars: TIP5 TERT/LT cells; 16-point two-fold dilution; two days.
Excerpt: as §5, §2, §3, §6, §7

Another test relates to TIP5/TERT cells. As to the kind of experiment: Calcein AM viability assay, dilution-series retest. As to conditions: TIP5-TERT cells; 16-point two-fold dilution; two days.
Excerpt: as §5, §2, §3, §6, §7

For another test, the system named is TIP5/TERT/E6/E7/ST cells. Kind of test: Calcein AM viability assay, dilution-series retest. Particulars: TIP5-TERT/E6E7/ST cells; 16-point two-fold dilution; two days.
Excerpt: as §5, §2, §3, §6, §7

The subject of test [5] is BJ-TERT/LT/ST/RAS^V12 tumorigenic cells. As to the kind of experiment: Calcein AM viability assay, dilution-series retest. The protocol: Described here is work carried out to identify compounds with increased potency or activity in the presence of hTERT, LT, ST, E6, E7 or RAS^V12. […] The primary screen tested (in quadruplicate) the effect of treating tumorigenic BJ-TERT/LT/ST/RAS^V12 engineered tumorigenic cells with each compound for 48 hours at a concentration of 4 μg/mL, corresponding to 10 μM for a compound with a molecular weight of 400, which is the approximate median molecular weight of the libraries. Cell viability was measured using the dye calcein acetoxymethyl ester (calcein AM) (Wang et al., 1993, Hum. Immunol. 3 7, 264-270), which is a non-fluorescent compound that freely diffuses into cells. In live cells, calcein AM is cleaved by intracellular esterases, forming the anionic fluorescent derivative calcein, which cannot diffuse out of live cells. […] The IC50 value (concentration required to inhibit 50% of the calcein AM signal) was calculated for each compound in each cell line (Table 1).
as §2, §3, §6

The test system of test [6] is BJ primary cells. As to the kind of experiment: Sensitization of primary cells by co-treatment, calcein AM viability staining. Particulars: BJ (or BJ-TERT) cells; simultaneous treatment. The source says: (A-C) Western blot of lysates from BJ, BJ-TERT, BJ-TERT/LT/ST, BJ-TERT/LT/ST/RAS^V12, BJ-TERT/LT/RAS^V12 and BJ-TERT/LT/RAS^V12/ST cells with an antibody directed against topoisomerase II (A) or TOPI (B, C). In panel (C), cells were transfected with an siRNA directed against TOPI, lamic A/C or with a control double strand DNA duplex of the same length (TOPI dsDNA). In each case, the blot was probed with an antibody against eIF-4E to identify differences in the amount of protein loaded. The relative amount is quantitated below each band. […] Cell number was determined after transfection with an siRNA directed against TOPI and treatment with the indicated concentrations of camptothecin. (E) Okadaic acid, an inhibitor of PP2A and other cellular phosphatases, sensitizes primary human cells to camptothecin. BJ primary cells were treated simultaneously with the indicated concentrations of both camptothecin and okadaic acid and the effect on calcein AM viability staining was determined. […] BJ primary cells were treated with the indicated concentrations of okadaic acid and the expression level of TOPI was determined by western blot. The relative amount is quantitated below each band.
The compounds in group (iii) are camptothecin (CPT) and a novel compound from a combinatorial library, which Applicants have named erastin, for eradicator of RAS and ST-expressing cells (FIG. 2). Efficient CPT-induced and erastin-induced cell death requires the presence of both ST and RAS^V12 (FIGS. 3 and 4 and Table 1). Although CPT and erastin have a similar genetic basis of selectivity, they have distinct mechanisms of action. […] The phosphatase inhibitor okadaic acid was capable of sensitizing otherwise resistant BJ primary cells to CPT (FIG. 5E), possibly because okadaic acid upregulates TOPI (FIG. 5F).

The values that follow come from patent US20050032124A1, “Identification of genotype-selective agents for treating Huntington's disease” (priority 2003, published 2005).

For the molecule `Cc1c2ccccc2c(CSC(=N)N)c2ccccc12.Cl` [NSC146109], the “concentration required to achieve 50% inhibition of calcein AM staining (IC50), BJ” value with BJ primary cells [1] is greater than 5 µg/mL. Moreover, the “IC50, BJ-TERT/LT/Ras^V12/ST” value in [2] was 2.5 µg/mL. The “IC50, BJ-TERT/LT/ST” value in the test on BJ-TERT/LT/ST cells was 2.5 µg/mL. Also, the “IC50, TIP5-TERT/E6E7 ST/Ras^V12” value in test [3] is 2.5 µg/mL. Besides, the “IC50, TIP5-TERT/E6E7” value in the test with TIP5/TERT/E6/E7 cells is 2.5 µg/mL. In test [4], the “IC50, TIP5 TERT/LT/ST/Ras^V12” value was 2.5 µg/mL. For the same molecule, in the test with TIP5/TERT/LT cells, the “IC50, TIP5 TERT/LT” value is greater than 5 µg/mL. Moreover, the “IC50, TIP5-TERT” value with TIP5/TERT cells was greater than 5 µg/mL. In the test on TIP5/TERT/E6/E7/ST cells, the “IC50, TIP5-TERT/E6E7 ST” value was 2.5 µg/mL. In test [5] (BJ-TERT/LT/ST/Ras^V12 cells, 16-point two-fold dilution, two days), the “IC50, BJ-TERT/LT/ST/Ras^V12” value was 2.5 µg/mL. Also, in test [5] (IC50 in primary BJ cells divided by IC50 in BJ-TERT/LT/ST/RAS^V12 tumorigenic cells), the “Tumor Selectivity” value is greater than 4.
For the molecule `COc1cc([C@@H]2c3cc4c(cc3[C@H](O)[C@H]3COC(=O)[C@H]23)OCO4)cc(OC)c1OC` [podophyllotoxin], the “sensitization of cells to camptothecin” value in the test on BJ primary cells [6] is on record as “does not sensitize BJ or BJ-TERT cells to CPT”.
